According to patent publication EP0496452A1, “Novel endothelin receptor antagonists isolated from microbispora” (MERCK & CO. INC., priority 1991, dated 1992):
*1 amine or outer side, *2 acyl side, *3 side chain or, on linkers, in order; H or OH if unused. Where a SMILES comes first, the peptide text is derived from it. Bridges are numbered along the chain shown (N, C = ends). [ ]: non-standard residue; d: D form. The star is where a group is joined. dPhg(3,5-diOH) = N[C@@H](C(=O)O)c1cc(O)cc(O)c1; X2 = O=C([C@@H](N[*:1])c1cc(O)cc(O)c1)[*:2]; d(aThr) = C[C@@H](O)[C@@H](N)C(=O)O; Pyrrole2CO = O=C(c1ccc[nH]1)*; X1 = O=C(c1ccc(Cl)[nH]1)*

Experiments:
[1] = Immunosuppressant activity (assay not described); conditions: may be attributable to assay differences
ET-B = target: T1, ET-B (Rattus norvegicus, UniProt P21451); test: 125I-ET-1 endothelin receptor binding assay, rat hippocampus membranes; conditions: 25 pM 125I-ET-1, 37° C
T1 construct: Membranes were prepared from rat hippocampus, and rat or cow aorta; from tissue; host or cells: rat hippocampus membranes
T1 sequence (P21451 27-442): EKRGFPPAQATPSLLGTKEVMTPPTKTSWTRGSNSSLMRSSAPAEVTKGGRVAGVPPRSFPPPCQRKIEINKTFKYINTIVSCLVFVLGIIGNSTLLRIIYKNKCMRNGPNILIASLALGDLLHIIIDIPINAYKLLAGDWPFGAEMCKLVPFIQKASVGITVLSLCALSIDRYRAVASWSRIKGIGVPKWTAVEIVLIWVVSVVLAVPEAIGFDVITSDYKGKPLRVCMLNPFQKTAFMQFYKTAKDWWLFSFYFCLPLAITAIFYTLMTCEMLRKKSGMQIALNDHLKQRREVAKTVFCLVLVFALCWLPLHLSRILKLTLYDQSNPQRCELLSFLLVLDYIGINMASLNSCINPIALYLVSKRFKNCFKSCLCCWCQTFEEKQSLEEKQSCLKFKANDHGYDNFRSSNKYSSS
Method: (§1) The binding of cyclopeptides I, II and III to the endothelin receptor was determined in accordance with the assay described in detail immediately below. It is similar to the assay described in Ambar et al. (1989) Biochem. Biophys. Res. Commun. 158, 195-201; and Khoog et al. (1989) Febs Letters, 253, 199-202.
(§2) Endothelin-1 (ET-1) was purchased from Peptides International (Louisville, KY ). ¹²⁵I-ET-1 (2000 Ci/mMol) was purchased from Amersham (Arlington Heights, IL).
(§3) Membranes were prepared from rat hippocampus, and rat or cow aorta. Dissected tissue was homogenized twice for 30 seconds with a Brinkman Polytron [setting 10, Generator PTA 20 TS (Westbury, NY)] in ice cold 250 mM sucrose, 50 mM Tris-HCl pH 7.4 with 7 µg/ml pepstatin A and 0.5 µg/ml leupeptin. The crude particulate matter was removed by centrifugation at 750 x g for 10 min. The membranes were sedimented from the supernatant fraction by centrifugation at 48,000 g for 30 min. Membrane pellets were resuspended in the above buffer with protease inhibitors. Aliquots of these suspensions were stored at -70° C.
(§4) Binding studies with ¹²⁵I-ET-1 were conducted in 50 mM potassium phosphate pH 7.5 with 0.1% bovine serum albumin (BSA) using 12-well Shatron (Lier, Norway) cell harvester tube strips. ¹²⁵I-ET-1 concentrations were 25 pM for hippocampus, 150 pM for aorta. Samples were dissolved in dimethylsulfoxide (DMSO). Upon addition of the sample, the final DMSO concentration was 3%. Membranes were added last to start the binding reaction. The reaction mixture was incubated at 37° C for 30 or 60 minutes. Binding reactions were terminated using a Skatron cell harvester by filtration through glass fiber filter pads presoaked with 2% BSA. The samples on the pads were immediately washed with 150 mM NaCl 0.1% BSA. The pads were punched out and radioactivity was evaluated in a Beckman Gamma 5500 gamma counter (Fullerton, CA). Nonspecific binding was determined in the presence of 100 nM ET-1. The results of this binding assay are set out in the table of values below: TABLE VI

ET-A = target: T2, ET-A (Rattus norvegicus, UniProt P26684); test: 125I-ET-1 endothelin receptor binding assay, rat aorta membranes; conditions: 150 pM 125I-ET-1, 37° C
T2 construct: Membranes were prepared from rat hippocampus, and rat or cow aorta; from tissue; host or cells: rat aorta membranes
T2 sequence (P26684 21-426): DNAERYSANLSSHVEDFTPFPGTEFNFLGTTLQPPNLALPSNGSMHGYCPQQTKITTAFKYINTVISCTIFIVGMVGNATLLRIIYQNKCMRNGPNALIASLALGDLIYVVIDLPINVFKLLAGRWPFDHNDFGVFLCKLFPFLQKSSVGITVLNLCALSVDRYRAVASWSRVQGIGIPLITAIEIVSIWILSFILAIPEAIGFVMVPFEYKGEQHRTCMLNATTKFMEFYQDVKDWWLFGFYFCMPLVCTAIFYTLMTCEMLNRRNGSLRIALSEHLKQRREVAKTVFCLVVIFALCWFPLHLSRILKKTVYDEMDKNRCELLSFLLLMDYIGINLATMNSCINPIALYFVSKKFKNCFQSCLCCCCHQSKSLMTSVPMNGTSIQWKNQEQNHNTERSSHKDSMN
Method: as §1, §2, §3, §4

| Structure (SMILES) | immunosuppressant activity [1] | Ki (ET-B) [nM] | Ki (ET-A) [nM] |
| --- | --- | --- | --- |
| C[C@H]1NC(=O)[C@@H](Cc2ccccc2)NC(=O)[C@H](NC(=O)[C@H](Cc2ccccc2)NC(=O)c2ccc(Cl)[nH]2)[C@@H](C)OC(=O)[C@@H](c2cc(O)cc(O)c2)NC(=O)[C@@H](c2cc(O)cc(O)c2)NC1=O [Compound III] (X1-F[d(aThr)][dF][dA][dPhg(3,5-diOH)][dPhg(3,5-diOH)]; ester 2-C) | no significant immunosuppressant activity | 500 | 200 |
| C[C@H]1NC(=O)[C@@H](Cc2ccccc2)NC(=O)[C@H](NC(=O)[C@H](Cc2ccccc2)NC(=O)c2ccc(Cl)[nH]2)[C@@H](C)OC(=O)[C@H](c2cc(O)cc(O)c2)NC(=O)[C@@H](c2cc(O)cc(O)c2)NC1=O [Compound II] (X1-F[d(aThr)][dF][dA][dPhg(3,5-diOH)][X2]; ester 2-C) | no significant immunosuppressant activity | 3000 | 3000 |
| C[C@H]1NC(=O)[C@@H](Cc2ccccc2)NC(=O)[C@H](NC(=O)[C@H](Cc2ccccc2)NC(=O)c2ccc[nH]2)[C@@H](C)OC(=O)[C@@H](c2cc(O)cc(O)c2)NC(=O)[C@@H](c2cc(O)cc(O)c2)NC1=O [Compound I] (Pyrrole2CO-F[d(aThr)][dF][dA][dPhg(3,5-diOH)][dPhg(3,5-diOH)]; ester 2-C) |  | 200 | 100 |
